Experimental data published in patent US10266549B2, “ULK1 inhibitors and methods using same” (SALK INSTITUTE FOR BIOLOGICAL STUDIES, priority 2014, dated 2019).

Columns and labels:
MEFs = assay: AnnexinV apoptosis analysis in nutrient-deprived MEFs; type: cell-based, mouse
Procedure: (§1) A549 cells (ATCC #CCL185) and MEFs were seeded at a concentration of 2.5×10^5 cells/mL (i.e., 750,000 cells per 6 cm dish), grown overnight (18 hrs) and treated as indicted in the figure legends. Unless otherwise indicated, “starvation” is EBSS and “control” is DMEM with full serum for indicated timepoints. Samples for western blot were washed once in 1× ice cold PBS and lysed in boiling SDS lysis buffer (10 mM Tris […], 100 mM NaCl, 1% SDS). After trituration, lysates were equilibrated for protein levels using the BCA method (Pierce) and resolved on 8 to 15% SDS-PAGE gels, depending on the size of the protein. PVDF membranes were probed with indicated antibodies overnight according to the manufacturers instructions.
For flow cytometry analysis, cells were collected at the appropriate time point, washed once in PBS, trypsinized and pelleted. For Annexin V staining, cells were washed in 1× Annexin V buffer and treated as described by the Annexin V staining protocol (BD Pharmingen, San Diego, Calif.). […] Stained cells were analyzed using a FACScan flow cytometer (Becton Dickinson, San Jose, Calif.). Flow cytometry data was analyzed using FlowJo 8.6 software (Tree Star Inc., Ashland, Oreg.). […]

A549 lung cancer cells [1] = assay: Cyto-ID autophagy detection in A549 cells; type: cell-based; settings: A549, 5 μM for 2 hr then 4 μM AZD8055 for 24 hr
Procedure: FIG. 9E is an immunoflourescence imaging of A549 cells treated in the presence or absence of 5 μM compound 14 for 2 hr followed by 4 μM of the mTOR catalytic inhibitor AZD8055 for 24 hr. Autophagic vacuoles were detected using the Cyto-ID autophagy detection kit and are visualized in green, while cell nuclei were counterstained by DAPI and are visualized in blue.
To test the ability of compound 14 to block autophagy and cell survival, initial studies were performed in A549 lung cancer cells, which are highly sensitive to mTOR inhibition. […] Next, we genetically assessed the requirement for ULK1 versus other kinases inhibited by compound 14 to induce autophagy after pharmacological mTOR inhibition. A robust high-throughput microscopy method for quantifying GFP-LC3 puncta was established using a PC3 prostate-cancer cell line stably expressing a GFP-LC3 construct. Using this assay, we performed a focused RNAi analysis of the top 20 kinases identified in the DiscovRx screen as best binding to compound 14. […] Strikingly, of the 18 kinases tested, only one kinase siRNA, ULK1, nearly fully abolished the LC3 puncta induced by the mTOR inhibitors (FIG. 9D).

A549 lung cancer cells [2] = assay: AnnexinV apoptosis analysis in A549 cells with mTOR inhibitor; type: cell-based
Procedure: as §1
(§2) For flow cytometry analysis, cells were collected at the appropriate time point, washed once in PBS, trypsinized and pelleted. For Annexin V staining, cells were washed in 1× Annexin V buffer and treated as described by the Annexin V staining protocol (BD Pharmingen, San Diego, Calif.). Briefly, cells were resuspended in Annexin V buffer to a concentration of one million per mL, 100,000 cells were then stained with 5 μL of phycoerythrin (PE)-conjugated Annexin V antibody (BD Pharmingen, San Diego, Calif.) and 5 μL of 7-amino-actinomycin D (7AAD) and then incubated at room temperature for 15 minutes. 400 μL of Annexin V buffer was then added to each sample with gentle mixing. Stained cells were analyzed using a FACScan flow cytometer (Becton Dickinson, San Jose, Calif.). Flow cytometry data was analyzed using FlowJo 8.6 software (Tree Star Inc., Ashland, Oreg.).
There has been great interest in the role of autophagy in the survival of tumor cells, particular tumor cells faced with metabolic stress from chemotherapies or targeted therapeutics. We next examined whether compound 14 would promote apoptosis in tumor cells similar to the MEFs, selectively under conditions in which autophagy is actively engaged. […] Given that mTOR activity is a dominant regulator of ULK1 activity, and we previously noted that treatment of cells with mTOR catalytic inhibitors was sufficient to induce ULK1 activity, we examined the effect of adding in the ULK1 inhibitor in the context of treatment with mTOR catalytic inhibitors. Using a cell line well-established to be sensitive to mTORC1 inhibition, A549 lung cancer cells, we treated with escalating doses of ULK1 inhibitor while keeping a constant cytostatic growth arrest-inducing 1 micromolar dose of the mTOR catalytic inhibitor AZD8055. We observed that 5 μM compound 14 in combination with AZD8055 triggered apoptosis in 22% of A549 cells compared to 9% of the 5 μM compound 14 alone or 6% of those cells treated with AZD8055 alone. […]

U87MG glioblastoma cells = assay: AnnexinV apoptosis in U87MG cells; type: cell-based; settings: selectively in the nutrient-starved state
Procedure: as §2
There has been great interest in the role of autophagy in the survival of tumor cells, particular tumor cells faced with metabolic stress from chemotherapies or targeted therapeutics. We next examined whether compound 14 would promote apoptosis in tumor cells similar to the MEFs, selectively under conditions in which autophagy is actively engaged. […]

WT ULK1 = WT ULK1 (Homo sapiens (Human), UniProt O75385); assay: in vitro kinase assay, WT ULK1, MBP substrate, radiolabeled ATP; type: biochemical; settings: 10-μM MBP, 30-μM γ-32P-ATP; triplicate, ten-dose, 3-fold serial dilution from 1 μM
WT ULK1, sequence (O75385 whole entry): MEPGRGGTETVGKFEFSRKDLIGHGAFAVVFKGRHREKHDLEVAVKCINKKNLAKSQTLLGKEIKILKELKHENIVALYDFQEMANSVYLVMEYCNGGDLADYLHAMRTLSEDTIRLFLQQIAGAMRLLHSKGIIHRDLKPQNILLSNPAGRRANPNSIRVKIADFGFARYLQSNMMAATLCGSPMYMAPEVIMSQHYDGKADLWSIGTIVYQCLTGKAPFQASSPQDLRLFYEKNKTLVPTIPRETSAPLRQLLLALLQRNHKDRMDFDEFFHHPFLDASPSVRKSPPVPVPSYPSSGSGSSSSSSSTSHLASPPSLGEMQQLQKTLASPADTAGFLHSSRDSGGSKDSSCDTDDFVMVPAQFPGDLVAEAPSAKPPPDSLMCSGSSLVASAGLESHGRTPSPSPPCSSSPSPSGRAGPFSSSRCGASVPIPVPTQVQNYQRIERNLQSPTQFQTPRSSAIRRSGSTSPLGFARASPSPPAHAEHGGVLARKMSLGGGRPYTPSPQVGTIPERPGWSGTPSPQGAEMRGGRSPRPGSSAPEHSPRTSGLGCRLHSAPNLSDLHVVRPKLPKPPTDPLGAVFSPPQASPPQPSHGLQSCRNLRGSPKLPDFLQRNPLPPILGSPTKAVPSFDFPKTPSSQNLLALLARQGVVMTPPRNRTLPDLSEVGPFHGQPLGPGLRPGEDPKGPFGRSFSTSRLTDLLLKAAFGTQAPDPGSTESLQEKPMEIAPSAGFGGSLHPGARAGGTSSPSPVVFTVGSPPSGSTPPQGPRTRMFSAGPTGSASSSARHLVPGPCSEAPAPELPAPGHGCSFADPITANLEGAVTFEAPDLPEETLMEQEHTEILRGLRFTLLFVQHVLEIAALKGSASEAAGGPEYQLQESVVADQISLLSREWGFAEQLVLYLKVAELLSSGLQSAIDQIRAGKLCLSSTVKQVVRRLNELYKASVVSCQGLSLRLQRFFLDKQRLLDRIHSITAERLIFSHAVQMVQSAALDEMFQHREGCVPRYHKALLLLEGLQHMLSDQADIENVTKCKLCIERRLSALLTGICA
Procedure: WT ULK1 (left) and WT ULK2 (right) were assayed using 10-μM MBP in the presence of 30-μM radiolabeled γ-^32P-ATP.
To further examine how ULK1 regulates autophagy, we sought to identify small molecule ATP competitive kinase inhibitors of ULK1. Screening a library of chemical compounds for inhibitors of ULK1 kinase activity in vitro, we identified a lead compound that was further elaborated through a medicinal chemistry effort to produce compound 14. […] To further characterize the ability of compound 14 and related derivatives to inhibit ULK1 in cells, we tested the ability of these compounds to inhibit the phosphorylation of Vps34 Ser249 when epitope-tagged Vps34 was co-expressed in HEK293T cells with a wild-type ULK1 cDNA. Screening 40 compounds, we found compound 14 inhibited P-Vps34 on overexpressed Vps34 when used at ˜5 μM (FIG. 7B). We next examined the sensitivity of phosphorylation of Vps34 Serine 249 versus Beclin Serine 15 to two structurally distinct ULK1 inhibitors, when cDNAs bearing each were introduced into HEK293T cells. […] (FIG. 11A).

ULK1 = ULK1 (Homo sapiens (Human), UniProt O75385); assay: ULK1 inhibition assay (Table 1); type: biochemical; settings: * = tested as a mixture of regioisomers
ULK1, sequence (O75385 whole entry, species assumed): as the sequence (O75385 whole entry) above

CNC(=O)c1ccccc1Nc1nc(Nc2cc(OC)c(OC)c(OC)c2)ncc1Br [compound 14, 2-(5-bromo-2-(3,4,5-trimethoxyphenylamino)pyrimidin-4-ylamino)-N-methylbenzamide]
AnnexinV positive cells (MEFs; MEFs, 24 h after amino-acid deprivation): 50%
cell death (MEFs; glucose-deprived MEFs): promoted cell death
AZD8055-induced autophagy (Cyto-ID autophagy dye accumulation) (A549 lung cancer cells [1]): strongly suppressed
apoptosis, % of A549 cells (A549 lung cancer cells [2]; 5 μM compound 14 alone): 9%
apoptosis, % of A549 cells (A549 lung cancer cells [2]; 5 μM compound 14 in combination with 1 micromolar AZD8055): 22%
induction of Annexin-V+ apoptotic A549 cells (A549 lung cancer cells [2]; 10 or 20 μM compound 14 with AZD8055): even more dramatically heightened
apoptosis (AnnexinV+ cells) (U87MG glioblastoma cells): promoted apoptosis
IC50 (WT ULK1): 0.107 µM
IC50 (ULK1): < 0.2 µM
